Legend:
E. coli ATCC25922 = test: Membrane permeability assay (propidium iodide uptake, flow cytometry); assay type: cell-based; settings: melittin 4 μM, positive control, 30 min 37 °C
Method: The effect of C-LR18 on bacterial membrane permeability was measured using the propidium iodide (PI) uptake assay described in [22]. E. coli ATCC25922 in logarithmic growth phase were adjusted to 1 × 10^6 CFU/mL. C-LR18 was added with the final concentration of 4 μM. The mixtures were incubated for 30 min at 37 °C. […] After eliminating unbound dye by washing twice with PBS, the bacterial cells were detected using a flow cytometer (Ex = 535 nm/Em = 615 nm). The results were analyzed using FlowJo 6.2.1 and GraphPad Prism 5 software.

[1] = cited from earlier work
Excerpt: An in vivo toxicity test is an essential step in the safety evaluation of exogenous drugs. The purpose is to observe the systemic toxicity of drugs on animals, including whether there are adverse physiological reactions, pathological changes in organs and tissues of the whole body, and the mortality of animals. Therefore, before the treatment of C-LR18 on E. coli-infected mice, we tested the acute toxicity of C-LR18 in mice.

E. coli Y1 [2] = test: Bacterial load in liver and spleen of mice; assay type: in vivo; settings: polymyxin B 1 mg/kg, positive control, one mouse every 24 h
Method: One hour after the mice were intraperitoneally injected with 0.5 mL of E. coli Y1 suspension (10^9 CFU/mL), C-LR18 was injected into the mice at a dose of 7.5 mg/kg through the tail vein. The normal saline group was used as negative control, and the polymyxin B group (1 mg/kg) was used as positive control. After that, one mouse was taken every 24 h, sacrificed via cervical dislocation, and the liver and spleen were removed, weighed, and added to PBS buffer for grinding at 3000 r/min for 2 min. The abrasive solution was diluted with sterile PBS (1:10,000), and 0.1 mL diluent was evenly coated in solid MH medium and cultured at 37 °C overnight. Colony counting was performed on the samples, and the bacterial colonization amount in liver and spleen was calculated.

E. coli Y1 [3] = test: Therapeutic experiment, survival of E. coli-infected mice; assay type: in vivo, KM mice; settings: polymyxin B 5.0 mg/kg ip 1 h after ip E. coli Y1 challenge, 10 mice per group
Method: The mice (female, 18–21 g) were randomly divided into 6 groups, with PBS dilution as the control group. A total of 1–5 groups were injected intraperitoneally with 0.5 mL of E. coli solution containing […] CFU/mL, respectively. After inoculation, the mice were observed continuously for 5 days, and the mortality rate was recorded. The minimum dose (LD 100) at which all mice die within 5 days was used as the optimal dose for the bacterial attack in this experiment.
In order to further evaluate the therapeutic potential of antimicrobial peptide C-LR18, a mouse model infected with E. coli was constructed in this study. The Km mice (female, 18–21 g) were maintained at constant room temperature [(25 ± 2) °C] with free access to food and water for 48 h. […] A total of 0.5 mL of E. coli Y1 suspension (10^9 CFU/m L) was intraperitoneally injected into each group of mice. One hour after challenge, different doses of C-LR18 (2.5 mg/kg, 5 mg/kg, and 7.5 mg/kg) and polymyxin B (5 mg/kg) were intraperitoneally injected into mice. The group injected with the same dose of physiological water was the control group.

Row | Compound | PI fluorescence of treated cells (PI-A+) (E. coli ATCC25922) | LD50 [1] | bacterial colonization in liver and spleen (E. coli Y1 [2]) | survival rate of mice (E. coli Y1 [3])
1 | CC[C@H](C)[C@H](NC(=O)CN)C(=O)NCC(=O)N[C@@H](C)C(=O)N[C@H](C(=O)N[C@@H](CC(C)C)C(=O)N[C@@H](CCCCN)C(=O)N[C@H](C(=O)N[C@@H](CC(C)C)C(=O)N[C@H](C(=O)N[C@H](C(=O)NCC(=O)N[C@@H](CC(C)C)C(=O)N1CCC[C@H]1C(=O)N[C@@H](C)C(=O)N[C@@H](CC(C)C)C(=O)N[C@H](C(=O)N[C@@H](CO)C(=O)N[C@@H](Cc1c[nH]c2ccccc12)C(=O)N[C@H](C(=O)N[C@@H](CCCCN)C(=O)N[C@@H](CCCNC(=N)N)C(=O)N[C@@H](CCCCN)C(=O)N[C@@H](CCCNC(=N)N)C(=O)N[C@@H](CCC(N)=O)C(=O)N[C@@H](CCC(N)=O)C(N)=O)[C@@H](C)CC)[C@@H](C)CC)[C@@H](C)O)[C@@H](C)O)C(C)C)C(C)C [Melittin, reference compound] | 83.6% | 4.98 mg/kg |  | 
2 | polymyxin B [reference compound] |  | 6.52 mg/kg | significantly less than that in the negative control group | 50%

— publication PMC11939470, “The Cyclic Antimicrobial Peptide C-LR18 Has Enhanced Antibacterial Activity, Improved Stability, and a Longer Half-Life Compared to the Original Peptide” (Antibiotics, 2025)
